Assay results reported in the OligoGym collection.
HELM strings list units from the 5' end as sugar, base in round brackets, then linkage (d deoxyribose, r ribose, m 2'-O-methyl, p phosphodiester). Strings are as the collection lists them; they lack the last nucleoside at the 3' end of the tested compound. [moe] = 2'-O-(2-methoxyethyl) (MOE); [sp] = phosphorothioate linkage; [m5C] = 5-methylcytosine

These substances were tested against SCN2A (assay: mouse, dose not given). Conditions: ASO.

Row | Substance | 3 h FOB score
1 | RNA1{[moe]([m5C])[sp].[moe]([m5C])p.[moe](A)p.[moe]([m5C])p.d(G)[sp].d([m5C])[sp].d(T)[sp].d(T)[sp].d(A)[sp].d([m5C])[sp].d(A)[sp].d(T)[sp].d([m5C])[sp].d(A)[sp].[moe](A)p.[moe](A)p.[moe]([m5C])p.[moe](A)[sp].[moe](T)}$$$$ (last 3' nucleoside missing) | 0 score 0-7
2 | RNA1{[moe](A)[sp].[moe]([m5C])p.[moe]([m5C])p.[moe]([m5C])p.[moe](A)p.[moe](G)[sp].d(T)[sp].d(T)[sp].d(T)[sp].d(T)[sp].d(T)[sp].d(T)[sp].d([m5C])[sp].d(A)[sp].[moe](T)p.[moe](T)[sp].[moe](G)}$$$$ (last 3' nucleoside missing) | 2 score 0-7
3 | RNA1{[moe](G)[sp].[moe](G)p.[moe](T)p.[moe]([m5C])p.[moe](T)p.d([m5C])[sp].d(T)[sp].d(T)[sp].d(A)[sp].d(G)[sp].d([m5C])[sp].d(T)[sp].d(T)[sp].d(T)[sp].d([m5C])[sp].[moe](T)p.[moe]([m5C])p.[moe](T)[sp].[moe](T)}$$$$ (last 3' nucleoside missing) | 4 score 0-7
4 | RNA1{[moe]([m5C])[sp].[moe](T)p.[moe](G)p.[moe]([m5C])p.[moe](A)p.[moe](T)[sp].d(G)[sp].d(T)[sp].d(A)[sp].d(A)[sp].d([m5C])[sp].d([m5C])[sp].d(T)[sp].d(T)[sp].[moe](T)p.[moe](A)[sp].[moe](T)}$$$$ (last 3' nucleoside missing) | 0 score 0-7
5 | RNA1{[moe](A)[sp].[moe](T)p.[moe](G)p.[moe]([m5C])p.[moe](A)p.[moe](T)p.d(A)[sp].d(A)[sp].d(T)[sp].d([m5C])[sp].d([m5C])[sp].d([m5C])[sp].d(A)[sp].d(T)[sp].d(T)[sp].d(A)[sp].[moe](T)p.[moe](A)[sp].[moe]([m5C])}$$$$ (last 3' nucleoside missing) | 0 score 0-7
6 | RNA1{[moe]([m5C])[sp].[moe]([m5C])p.[moe](A)p.[moe](T)p.[moe](T)p.[moe](T)p.d([m5C])[sp].d(T)[sp].d(A)[sp].d(T)[sp].d(A)[sp].d(A)[sp].d([m5C])[sp].d(T)[sp].d([m5C])[sp].d(A)[sp].[moe](G)p.[moe]([m5C])[sp].[moe](A)}$$$$ (last 3' nucleoside missing) | 0 score 0-7
7 | RNA1{[moe](T)[sp].[moe](G)p.[moe]([m5C])p.[moe](A)p.[moe](T)p.[moe](G)[sp].d(T)[sp].d(A)[sp].d(A)[sp].d([m5C])[sp].d([m5C])[sp].d(T)[sp].d(T)[sp].d(T)[sp].[moe](A)p.[moe](T)[sp].[moe](A)}$$$$ (last 3' nucleoside missing) | 0 score 0-7
8 | RNA1{[moe](T)[sp].[moe]([m5C])p.[moe](T)p.[moe](T)p.d(T)[sp].d([m5C])[sp].d(T)[sp].d(T)[sp].d(A)[sp].d(T)[sp].d(T)[sp].d(T)[sp].d([m5C])[sp].d(T)[sp].[moe](G)p.[moe](T)p.[moe](T)p.[moe](T)[sp].[moe]([m5C])}$$$$ (last 3' nucleoside missing) | 0 score 0-7
9 | RNA1{[moe](A)[sp].[moe](T)p.[moe]([m5C])p.[moe](A)p.[moe]([m5C])p.[moe](T)p.d(T)[sp].d(T)[sp].d([m5C])[sp].d(A)[sp].d(T)[sp].d([m5C])[sp].d([m5C])[sp].d(A)[sp].d([m5C])[sp].d(G)[sp].[moe](A)p.[moe]([m5C])[sp].[moe](A)}$$$$ (last 3' nucleoside missing) | 0 score 0-7
10 | RNA1{[moe](T)[sp].[moe]([m5C])p.[moe]([m5C])p.[moe](A)p.[moe]([m5C])p.d(G)[sp].d(A)[sp].d([m5C])[sp].d(A)[sp].d(T)[sp].d(A)[sp].d(T)[sp].d(T)[sp].d(T)[sp].d(T)[sp].[moe](T)p.[moe]([m5C])p.[moe](T)[sp].[moe](A)}$$$$ (last 3' nucleoside missing) | 1.33 score 0-7
11 | RNA1{[moe](T)[sp].[moe](G)p.[moe]([m5C])p.[moe](A)p.[moe](T)[sp].d(G)[sp].d(T)[sp].d(A)[sp].d(A)[sp].d([m5C])[sp].d([m5C])[sp].d(T)[sp].d(T)[sp].[moe](T)p.[moe](A)p.[moe](T)[sp].[moe](A)}$$$$ (last 3' nucleoside missing) | 0 score 0-7
12 | RNA1{[moe](A)[sp].[moe](T)p.[moe]([m5C])p.[moe](A)p.d(T)[sp].d(G)[sp].d([m5C])[sp].d(A)[sp].d(T)[sp].d(A)[sp].d(A)[sp].d(T)[sp].d([m5C])[sp].d([m5C])[sp].[moe]([m5C])p.[moe](A)p.[moe](T)p.[moe](T)[sp].[moe](A)}$$$$ (last 3' nucleoside missing) | 1 score 0-7
13 | RNA1{[moe]([m5C])[sp].[moe](A)p.[moe](T)p.[moe](G)p.d([m5C])[sp].d(A)[sp].d(T)[sp].d(A)[sp].d(A)[sp].d(T)[sp].d([m5C])[sp].d([m5C])[sp].d([m5C])[sp].d(A)[sp].[moe](T)p.[moe](T)p.[moe](A)p.[moe](T)[sp].[moe](A)}$$$$ (last 3' nucleoside missing) | 0 score 0-7
14 | RNA1{[moe](G)[sp].[moe]([m5C])p.[moe](A)p.[moe](T)p.[moe](G)p.d(T)[sp].d(A)[sp].d(A)[sp].d([m5C])[sp].d([m5C])[sp].d(T)[sp].d(T)[sp].d(T)[sp].d(A)[sp].d(T)[sp].[moe](A)p.[moe]([m5C])p.[moe](A)[sp].[moe](T)}$$$$ (last 3' nucleoside missing) | 0 score 0-7
15 | RNA1{[moe](A)[sp].[moe](G)p.[moe]([m5C])p.[moe](T)p.[moe]([m5C])p.d(T)[sp].d(T)[sp].d(T)[sp].d(T)[sp].d(T)[sp].d([m5C])[sp].d(A)[sp].d([m5C])[sp].d(T)[sp].d(T)[sp].[moe](T)p.[moe](T)p.[moe](G)[sp].[moe](G)}$$$$ (last 3' nucleoside missing) | 0.67 score 0-7
16 | RNA1{[moe]([m5C])[sp].[moe](A)p.[moe](T)p.[moe](T)p.[moe](T)p.d([m5C])[sp].d(T)[sp].d(A)[sp].d(T)[sp].d(A)[sp].d(A)[sp].d([m5C])[sp].d(T)[sp].d([m5C])[sp].d(A)[sp].[moe](G)p.[moe]([m5C])p.[moe](A)[sp].[moe](A)}$$$$ (last 3' nucleoside missing) | 0 score 0-7
17 | RNA1{[moe](A)[sp].[moe](T)p.[moe](T)p.[moe]([m5C])p.[moe](T)p.d(G)[sp].d([m5C])[sp].d(A)[sp].d(T)[sp].d(G)[sp].d(T)[sp].d(A)[sp].d(A)[sp].d([m5C])[sp].d([m5C])[sp].[moe](T)p.[moe](T)p.[moe](T)[sp].[moe](A)}$$$$ (last 3' nucleoside missing) | 3 score 0-7
18 | RNA1{[moe]([m5C])[sp].[moe](T)p.[moe](G)p.[moe]([m5C])p.[moe](A)p.[moe](T)p.d(G)[sp].d(T)[sp].d(A)[sp].d(A)[sp].d([m5C])[sp].d([m5C])[sp].d(T)[sp].d(T)[sp].d(T)[sp].d(A)[sp].[moe](T)p.[moe](A)[sp].[moe]([m5C])}$$$$ (last 3' nucleoside missing) | 0 score 0-7
19 | RNA1{[moe]([m5C])[sp].[moe](A)p.[moe]([m5C])p.[moe](G)p.[moe]([m5C])p.d(T)[sp].d(T)[sp].d(A)[sp].d([m5C])[sp].d(A)[sp].d(T)[sp].d([m5C])[sp].d(A)[sp].d(A)[sp].d(A)[sp].[moe]([m5C])p.[moe](A)p.[moe](T)[sp].[moe]([m5C])}$$$$ (last 3' nucleoside missing) | 0 score 0-7
